Format in all cases: cell-based, human
The test system of data set [1] is MAT2A. Put plainly: MAT2A mRNA levels by real-time PCR in HT-29 cells. The note with it: for MAT2A mRNA levels after growth factor: growth factor 100 ng/ml. How it is done:
(§1) HT-29 and RKO cells were obtained from the Cell Culture Core of the USC Liver Disease Research Center and grown according to instructions provided by the American Type Culture Collection (ATCC, Rockville, Md.). Prior to treatment with growth factors, SAMe or MTA, medium was changed to 0.1% FBS overnight.
RNA interference (RNAi) experiments were performed using Lipofectamine RNAiMax (Invitrogen) according to the manufacturer's instructions. Small interfering RNA (siRNA) oligonucleotides for MAT2A and scrambled siRNA were synthesized by the USC Norris Comprehensive Cancer Center Microchemical Core Laboratory, and annealed to form duplexes. Stealth RNAi for MAT2A and Stealth RNAi negative control duplexes were synthesized by Invitrogen (Carlsbad, Calif.). The following siRNA sequences were used: si-MAT2A #1, 5′-[…]-3′ (sense) and 5′-[…]-3′ (antisense); si-control with scrambled sequence (negative control siRNA having no perfect matches to known human genes), 5′-[…]dTdT-3′ (sense) and 5% […]dTdT-3′ (antisense); stealth RNAi-MAT2A #5, 5′-[…]-3′ (sense) and 5′-[…]-3′ (antisense). […]
(§2) Total RNA was isolated by the EZgeno total RNA isolation kit (Genemega, San Giego, Calif.), and subjected to reverse transcription (RT) by using M-MLV Reverse transcriptase (Invitrogen). 2 μl of RT product was subjected to quantitative real-time PCR analysis. The primers and TaqMan probes for MAT2A, MAT2β and Universal PCR Master Mix were purchased from ABI (Foster City, Calif.). Hypoxanthine phosphoribosyl-transferase 1 (HPRT1) and ubiquitin C (UBC) were used as housekeeping genes (48). The thermal profile consisted of 1 cycle at 95° C. for 15 minutes followed by 40 cycles at 95° C. for 15 seconds and at 60° C. for 1 minute. The expression of MAT2A and MAT2β was checked by normalizing the Ct of MAT2A and MAT2β to that of the control housekeeping gene (HPRT1 or UBC) (49). The delta Ct obtained was used to find the relative expression of MAT genes according to the formula: Relative expression=2·^ΔCt, where ΔCt=ΔCt of MAT genes in colon cancer or treated cells—ΔCt of MAT genes in normal colon or control cells.
On the technique in general: Quantitative PCR measures a nucleic acid by following its amplification.

Data set [2] relates to ornithine decarboxylase (ODC). Put plainly: ODC expression by real-time PCR in HT-29 cells. The note with it: 6 hrs, mitogen 100 ng/ml.
Data set [3] relates to MAT2A. The data set is described as follows: MAT2A mRNA levels by real-time PCR in RKO cells. To be noted: for MAT2A mRNA levels after growth factor / MAT2A expression: RKO cells; for MAT2A mRNA levels after growth factor: growth factor 100 ng/ml. How it is done: as §1
RNA interference (RNAi) experiments were performed using Lipofectamine RNAiMax (Invitrogen) according to the manufacturer's instructions. Small interfering RNA (siRNA) oligonucleotides for MAT2A and scrambled siRNA were synthesized by the USC Norris Comprehensive Cancer Center Microchemical Core Laboratory, and annealed to form duplexes. Stealth RNAi for MAT2A and Stealth RNAi negative control duplexes were synthesized by Invitrogen (Carlsbad, Calif.). The following siRNA sequences were used: si-MAT2A #1, 5′-[…]-3′ (sense) and 5′-[…]-3′ (antisense); si-control with scrambled sequence (negative control siRNA having no perfect matches to known human genes), 5′-[…]dTdT-3′ (sense) and 5% […]dTdT-3′ (antisense); stealth RNAi-MAT2A #5, 5′-[…]-3′ (sense) and 5′-[…]-3′ (antisense). Transfection was allowed to proceed 72 hours before collection for different assays.
as §2

Data set [4] relates to spermine synthase (SPM syn). Put plainly: SPM syn expression by real-time PCR in HT-29 cells. To be noted: 6 hrs, mitogen 100 ng/ml.
The subject of data set [5] is HT-29 cells. The data set is described as follows: Polyamine levels in HT-29 cells. The note with it: 6 hrs, mitogen 100 ng/ml. How it is done: as §1
(§3) Cellular SAMe and MTA levels were measured (51) and polyamine levels were determined (52).

Data set [6] relates to HT-29 cells. Put plainly: Cellular SAMe and MTA levels in HT-29 cells. The note with it: mitogen 100 ng/ml. How it is done: as §1, §3
The test system of a further data set is SPD syn. The data set is described as follows: SPD syn expression by real-time PCR in HT-29 cells. The note with it: 6 hrs, mitogen 100 ng/ml.
Another data set relates to RKO cells. The data set is described as follows: Apoptosis in RKO cells (HOECHST staining, Annexin V). How it is done: Apoptosis was assessed by HOECHST staining (34). Briefly, RKO cells were grown on coverslips and treated with RNAi#1 for 24 hrs and cells were fixed with paraformaldehyde and stained with 8 μg/ml HOECHST 33258 dye for 30 min. Cells with bright, fragmented, condensed nuclei were identified as apoptotic cells using the Nikon Eclipse TE300 fluorescent microscope. At least 5 random fields (at ×300) were counted.
In these experiments the total treatment duration was limited to 16 hrs to avoid the apoptotic effect. […] Apoptosis was measured by Hoechst staining or Annexin V and propidium iodide staining on flow cytometry.

Data set [7] deals with HT-29 cells. The data set is described as follows: Cell growth by MTT assay in HT-29 cells. How it is done:
Cell growth was measured by the cell growth determination kit MTT from Sigma (St. Louis, Mo.). The MTT assay measures the cell proliferation rate and reduction in cell viability. HT-29 or RKO cells (1×10^4/well) were plated in 96-well plates and treated with growth factors (all 100 ng/ml), SAMe (0.5 to 5 mM), MTA (0.5 to 1 mM), alone or in combination for 16 hrs in serum-free medium. To determine the effect of MAT2A RNAi on mitogen-induced changes in MTT, cells were first treated with RNAi for 48 hrs followed by mitogen treatment for another 24 hrs.

Take EGF: Epidermal growth factor, mitogen: the “MAT2A mRNA levels after growth factor” value in the data set with MAT2A [1] (HT-29 cells) is reported as “doubled”. For the same substance, in [2], the ODC expression is 1.5 ± 0.07 fold of control. Besides, in the data set on MAT2A [3], the “MAT2A mRNA levels after growth factor” value is reported as “doubled”. In addition, in [4], the SPM syn expression was 1.1 ± 0.02 fold of control. In the data set on HT-29 cells [5], this substance returned a Putrescine of 0.32 ± 0.01 nmol/mg protein, a Spermidine of 2.19 ± 0.23 nmol/mg protein and a Spermine of 12.55 ± 2.04 nmol/mg protein. In the data set with HT-29 cells [6] (6 hrs), this substance had an MTA level of 0.054 ± 0.001 nmol/mg protein and an SAMe level of 0.54 ± 0.04 nmol/mg protein. Moreover, in the data set with HT-29 cells [6] (16 hrs), the MTA level was 0.061 ± 0.010 nmol/mg protein and the SAMe level was 0.63 ± 0.06 nmol/mg protein. For the same substance, the SPD syn expression with SPD syn was 1.7 ± 0.08 fold of control.

As to “IGF-1: insulin-like growth factor-1, mitogen”, the “MAT2A mRNA levels after growth factor” value in the data set on MAT2A [1] (HT-29 cells) is given as “doubled”. Moreover, the ODC expression in [2] is 1.5 ± 0.08 fold of control. Moreover, the “MAT2A mRNA levels after growth factor” value with MAT2A [3] is on record as “doubled”. Besides, the SPM syn expression in data set [4] is reported as 1.1 ± 0.03 fold of control. In the data set on HT-29 cells [5], this substance registered a Putrescine of 0.22 ± 0.02 nmol/mg protein, a Spermidine of 2.82 ± 0.09 nmol/mg protein and a Spermine of 12.55 ± 2.50 nmol/mg protein. In addition, in the data set with HT-29 cells [6] (6 hrs), the MTA level came out at 0.054 ± 0.003 nmol/mg protein. In the data set with HT-29 cells [6] (16 hrs), this substance registered an MTA level of 0.087 ± 0.025 nmol/mg protein and an SAMe level of 1.03 ± 0.03 nmol/mg protein. Besides, the SPD syn expression with SPD syn is reported as 2.2 ± 0.20 fold of control.

With “RNAi#1: siRNA against MAT2A, sense 5′-ACACAUUGGAUAUGAUGAUTT-3′ (antisense AUCAUCAUAUCCAAUGUGUTT; chemistry not given here) [reference compound]”, the apoptosis entry in the data set on RKO cells (24 hrs of RNAi treatment) is listed as “significant increase in apoptosis”; in the data set with RKO cells (48 hrs of RNAi treatment) it was “more pronounced”. Also, the “lowering of MAT2A expression” value in the data set with MAT2A [3] turned out to be 90%. Further, the MAT2A expression with MAT2A [3] (24 hrs) was 25 % of scrambled control; in the data set with MAT2A [3] (48 hrs), 9 % of scrambled control.

For the substance “RNAi#5: stealth RNAi against MAT2A, sense 5′-CCACCUACAGCCAAGUGGCAGAUUU-3′ (antisense AAAUCUGCCACUUGGCUGUAGGUGG; chemistry not given here) [reference compound]”, in the data set on RKO cells (after 24 hrs), the apoptosis entry is on record as “No apoptosis was detected”. Further, in the data set on MAT2A [1] (HT-29 cells, RNAi 48 hrs), the “MAT2A mRNA level” value is 50 % of control. Further, the “lowering of MAT2A expression” value in the data set with MAT2A [1] (at 72 hrs) is on record as 50%. For the same substance, the “lowering of MTT value” in the data set on HT-29 cells [7] (HT-29 or RKO cells, RNAi 48 hrs then another 24 hrs) is recorded as “about 30%”. Besides, the “mitogenic effect of leptin, IGF-1 and EGF” value in the data set with HT-29 cells [7] (RNAi 48 hrs, then growth factors 24 hrs) is “blocked the ability of leptin, IGF-1 and EGF to fully exert their mitogenic effect”.

The values above are taken from patent publication US20100166727A1, “S-Adenosylmethionine And Methylthioadensosine In Chemoprevention And Treatment Of Colon Polyps And Cancer” (UNIVERSITY OF SOUTHERN CALIFORNIA, priority 2007, published 2010).
